# Key:
# PRMT5 [1] = target: T1, PRMT5 (Homo sapiens, UniProt O14744); assay: PRMT5 IC50 assay with no cofactor; assay type: biochemical
# T1 construct: purchased Viva (custom protein)
# Method in brief: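 Values reflect IC50 (μM) on human PRMT5 under three cofactor states. Selectivity is derived as the quotient of SAM-state Ki over MTA-state Ki, with each Ki obtained from its IC50.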
# HAP1 MTAP-deleted = assay: SDMA in-cell western assay, HAP1 MTAP-deleted cell line; assay type: cell-based; conditions: for IC50: Homo sapiens, HAP1 MTAP-deleted cell line; for MTAP Intact/Deleted Ratio: IC50 ratio HAP1 MTAP-intact / HAP1 MTAP-deleted
# Method in brief: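 Readout is cellular SDMA signal by in-cell western, with IC50 values derived from it. The cells are MTAP-null HAP1, matched to an isogenic MTAP-intact HAP1 line.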
# HAP1 MTAP-intact = assay: SDMA in-cell western assay, HAP1 MTAP-intact cell line; assay type: cell-based; conditions: Homo sapiens
# Method in brief: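 IC50 values come from SDMA in-cell western staining of HAP1 cells. The MTAP-intact line carries endogenous MTAP, while its MTAP-deleted counterpart lacks MTAP entirely. A selectivity ratio of at least 3 fold marks a compound as MTAP-selective.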
# PRMT5 [2] = target: T1, PRMT5; assay: PRMT5 IC50 assay in the presence of SAM as cofactor; assay type: biochemical
# Method in brief: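 Enzyme: human PRMT5. Conditions: plus SAM, plus MTA, or cofactor-free. Output: IC50 (μM); Ki via IC50/1.5 (SAM) or IC50/13.5 (MTA).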
# PRMT5 [3] = target: T1, PRMT5; assay: PRMT5 IC50 assay in the presence of MTA as cofactor; assay type: biochemical; conditions: for IC50: PRMT5, MTA as cofactor
# Method in brief: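 Potency against PRMT5 is compared across cofactor states, where IC50 equals Ki×1.5 with SAM present and Ki×13.5 with MTA present.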
# [4] = ratio between Ki in the presence of SAM and Ki in the presence of MTA
# [5] = ratio between the Ki in the presence of SAM and the Ki in the presence of MTA
# T1 sequence (O14744 whole entry): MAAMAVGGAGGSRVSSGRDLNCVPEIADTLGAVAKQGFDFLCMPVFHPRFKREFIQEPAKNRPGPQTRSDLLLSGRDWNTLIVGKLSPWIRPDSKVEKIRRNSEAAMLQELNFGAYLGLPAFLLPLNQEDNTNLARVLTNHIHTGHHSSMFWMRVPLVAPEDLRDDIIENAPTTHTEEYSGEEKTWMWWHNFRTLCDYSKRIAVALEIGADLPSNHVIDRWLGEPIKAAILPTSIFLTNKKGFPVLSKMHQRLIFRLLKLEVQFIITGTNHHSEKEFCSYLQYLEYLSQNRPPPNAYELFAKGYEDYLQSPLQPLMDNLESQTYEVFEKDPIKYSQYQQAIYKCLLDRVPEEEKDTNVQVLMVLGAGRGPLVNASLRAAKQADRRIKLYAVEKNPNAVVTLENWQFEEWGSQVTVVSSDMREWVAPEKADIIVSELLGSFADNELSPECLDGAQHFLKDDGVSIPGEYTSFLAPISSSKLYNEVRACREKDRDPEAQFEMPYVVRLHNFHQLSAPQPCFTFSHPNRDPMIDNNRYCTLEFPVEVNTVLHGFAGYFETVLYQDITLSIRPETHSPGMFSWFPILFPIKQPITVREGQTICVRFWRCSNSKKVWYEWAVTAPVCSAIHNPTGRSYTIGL
# T1 sequence (Q9BQA1 whole entry partner): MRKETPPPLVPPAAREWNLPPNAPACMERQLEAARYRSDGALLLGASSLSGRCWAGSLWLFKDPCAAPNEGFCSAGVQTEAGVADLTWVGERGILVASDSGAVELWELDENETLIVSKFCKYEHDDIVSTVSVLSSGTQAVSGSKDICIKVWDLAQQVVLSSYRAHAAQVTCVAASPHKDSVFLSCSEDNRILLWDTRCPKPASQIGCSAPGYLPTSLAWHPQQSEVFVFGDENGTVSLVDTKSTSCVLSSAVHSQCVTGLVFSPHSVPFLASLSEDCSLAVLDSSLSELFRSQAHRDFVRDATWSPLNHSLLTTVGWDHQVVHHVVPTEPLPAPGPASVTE
SMILES,IC50 (PRMT5 [1]; read-out: No Co-factor IC50) [nM],IC50 (HAP1 MTAP-deleted) [nM],MTAP Intact/Deleted Ratio (HAP1 MTAP-deleted),IC50 (HAP1 MTAP-intact) [nM],IC50 (PRMT5 [2]) [nM],IC50 (PRMT5 [3]) [nM],SAM/MTA Ratio (PRMT5 [3]; [4]),IC50 (PRMT5 [1]) [nM],SAM/MTA Ratio (PRMT5 [3]; [5])
"CC(=O)N1[C@@H]2CC[C@H]1C[C@H](Nc1cc(C(=O)NC[C@H](O)CN3CCc4cc(OCc5ocnc5C)ccc4C3)ccn1)C2 [Compound 645, 2-(((1R,3r,5S)-8-acetyl-8-azabicyclo[3.2.1]octan-3-yl)amino)-N—((S)-2-hydroxy-3-(6-((4-methyloxazol-5-yl)methoxy)-3,4-dihydroisoquinolin-2(1H)-yl)propyl)isonicotinamide]",500 to 5000,< 1000,A* (an IC50 ratio greater than or equal to 10 fold between the IC50 in the HAP1 MTAP-intact cell line and the HAP1 MTAP-deleted cell line),≥ 10000,50 to 500,50 to 500,A (a Ki ratio greater than or equal to 10 fold between the Ki in the presence of SAM and the Ki in the presence of MTA),,
"Cc1ncoc1COc1ccc2c(c1)CCN(C[C@@H](O)CNC(=O)c1cc(NC3CCC3)nc(N3CCOCC3)c1)C2 [Compound 384, 2-(cyclobutylamino)-N-[(2S)-2-hydroxy-3-{6-[(4-methyl-1,3-oxazol-5-yl)methoxy]-1,2,3,4-tetrahydroisoquinolin-2-yl}propyl]-6-(morpholin-4-yl)pyridine-4-carboxamide]",500 to 5000,< 1000,B* (an IC50 ratio greater than or equal to 3 fold but lower than 10 fold between the IC50 in the HAP1 MTAP-intact cell line and the HAP1 MTAP-deleted cell line),< 1000,50 to 500,50 to 500,A (a Ki ratio greater than or equal to 10 fold between the Ki in the presence of SAM and the Ki in the presence of MTA),,
"COc1cc(C(=O)NC[C@H](O)CN2CCc3c(ccc(OCc4ocnc4C)c3C)C2)cc(NC2CCN(C(C)=O)CC2)n1 [Compound 604, (S)-2-((1-acetylpiperidin-4-yl)amino)-N-(2-hydroxy-3-[5-methyl-6-((4-methyloxazol-5-yl)methoxy)-3,4-dihydroisoquinolin-2(1H)-yl)propyl)-6-methoxyisonicotinamide]",,< 1000,A* (an IC50 ratio greater than or equal to 10 fold between the IC50 in the HAP1 MTAP-intact cell line and the HAP1 MTAP-deleted cell line),1000 to 10000,50 to 500,50 to 500,,500 to 5000,A (a Ki ratio greater than or equal to 10 fold between the Ki in the presence of SAM and the Ki in the presence of MTA)
CC(=O)N1CCC(Nc2ccnc(C(=O)NC[C@H](O)CN3CCc4c(ccc(OCc5cnco5)c4C)C3)c2)CC1 [Compound 559],,1000 to 10000,C* (an IC50 ratio of less than 3 fold between the IC50 in the HAP1 MTAP-intact cell line and the HAP1 MTAP-deleted cell line),≥ 10000,50 to 500,50 to 500,,500 to 5000,A (a Ki ratio greater than or equal to 10 fold between the Ki in the presence of SAM and the Ki in the presence of MTA)
"O=C(NC[C@H](O)CN1CCc2cc(OCc3cnco3)ccc2C1)c1cncc(NC2CCC2)c1 [Compound 270, (S)-5-(cyclobutylamino)-N-(2-hydroxy-3-(6-(oxazol-5-ylmethoxy)-3N-dihydroisoquinolin-2(1H)-yl)propyl)nicotinamide]",500 to 5000,< 1000,C* (an IC50 ratio of less than 3 fold between the IC50 in the HAP1 MTAP-intact cell line and the HAP1 MTAP-deleted cell line),< 1000,50 to 500,50 to 500,A (a Ki ratio greater than or equal to 10 fold between the Ki in the presence of SAM and the Ki in the presence of MTA),,
"CC(=O)N(C)[C@H]1CC[C@H](Nc2cc(C(=O)NC[C@H](O)CN3CCc4c(ccc(OCc5cnco5)c4C)C3)ncn2)CC1 [Compound 605, N-[(2S)-2-hydroxy-3-{5-methyl-6-[(1,3-oxazol-5-yl)methoxy]-1,2,3,4-tetrahydroisoquinolin-2-yl}propyl]-6-{[(1r,4r)-4-(N-methylacetamido)cyclohexyl]amino}pyrimidine-4-carboxamide]",,1000 to 10000,B* (an IC50 ratio greater than or equal to 3 fold but lower than 10 fold between the IC50 in the HAP1 MTAP-intact cell line and the HAP1 MTAP-deleted cell line),≥ 10000,50 to 500,50 to 500,,≥ 5000,A (a Ki ratio greater than or equal to 10 fold between the Ki in the presence of SAM and the Ki in the presence of MTA)
"Cc1c(OCc2cnco2)ccc2c1CCN(C[C@@H](O)CNC(=O)c1cc(NC3CCN(C(=O)C(C)C)CC3)ncn1)C2 [Compound 520, N-[(2S)-2-hydroxy-3-{5-methyl-6-[(1,3-oxazol-5-yl)methoxy]-1,2,3,4-tetrahydroisoquinolin-2-yl}propyl]-6-{[1-(2-methylpropanoyl)piperidin-4-yl]amino}pyrimidine-4-carboxamide]",,1000 to 10000,B* (an IC50 ratio greater than or equal to 3 fold but lower than 10 fold between the IC50 in the HAP1 MTAP-intact cell line and the HAP1 MTAP-deleted cell line),≥ 10000,50 to 500,50 to 500,,≥ 5000,A (a Ki ratio greater than or equal to 10 fold between the Ki in the presence of SAM and the Ki in the presence of MTA)
"Cc1ncoc1COc1ccc2c(c1)CCN(C[C@@H](O)CNC(=O)c1cc(Nc3cccnc3)nc(N3[C@@H]4CC[C@H]3COC4)c1)C2 [Compound 603, 2-((1R,5S)-3-oxa-8-azabicyclo[3.2.1]octan-8-yl)-N—((S)-2-hydroxy-3-(6-((4-methyloxazol-5-yl)methoxy)-3,4-dihydroisoquinolin-2(1H)-yl)propyl)-6-(pyridin-3-ylamino)isonicotinamide]",,< 1000,B* (an IC50 ratio greater than or equal to 3 fold but lower than 10 fold between the IC50 in the HAP1 MTAP-intact cell line and the HAP1 MTAP-deleted cell line),1000 to 10000,50 to 500,< 50,,500 to 5000,A (a Ki ratio greater than or equal to 10 fold between the Ki in the presence of SAM and the Ki in the presence of MTA)
"Cc1ncoc1COc1ccc2c(c1)CCN(C[C@@H](O)CNC(=O)c1ccnc(Nc3cccnc3)c1)C2 [Compound 581, (S)—N-(2-hydroxy-3-(6-((4-methyloxazol-5-yl)methoxy)-3,4-dihydroisoquinolin-2(1H)-yl)propyl)-2-(pyridin-3-ylamino)isonicotinamide]",,1000 to 10000,B* (an IC50 ratio greater than or equal to 3 fold but lower than 10 fold between the IC50 in the HAP1 MTAP-intact cell line and the HAP1 MTAP-deleted cell line),1000 to 10000,50 to 500,50 to 500,,≥ 5000,A (a Ki ratio greater than or equal to 10 fold between the Ki in the presence of SAM and the Ki in the presence of MTA)
CC(=O)N1CCC(Nc2cc(C(=O)NC[C@H](O)CN3CCc4cc(OCc5ocnc5C)ccc4C3)nc(N3CCCCC3)n2)CC1 [Compound 647],50 to 500,< 1000,B* (an IC50 ratio greater than or equal to 3 fold but lower than 10 fold between the IC50 in the HAP1 MTAP-intact cell line and the HAP1 MTAP-deleted cell line),< 1000,50 to 500,< 50,A (a Ki ratio greater than or equal to 10 fold between the Ki in the presence of SAM and the Ki in the presence of MTA),,

# From patent US11986471B2, “Compounds and methods of use” (Tango Therapeutics, Inc., priority 2018, dated 2024)
